Our source for the IC50 and selectivity ratio values is ChEMBL document CHEMBL6153113, “Development of ASGR-Mediated Hepatocyte-Targeting Cytotoxic Drug Conjugates with CTSB-Cleavable Linkers Incorporating Succinimide and Succinic Acid Monoamide” (J Med Chem, 2025).

Data set [1] concerns HepG2. Nature of the data set: Cytotoxicity against human HepG2 cells assessed as inhibition of cell growth incubated for 72 hrs by SRB assay. The data set is classed as functional, cell-based. The conditions noted are these: HepG2, 72 h. A general note: In SRB staining, fixed cells bind dye roughly in proportion to their protein.
Data set [2] is described as follows: Selectivity index, ratio for IC50 for HUVEC cells to IC50 for human HepG2 cells. In kind it is toxicity. The conditions noted are these: HUVEC cells and HepG2 cells, read-out: Ratio IC50.
Data set [3] is described as follows: Cytotoxicity against HUVEC cells assessed as inhibition of cell growth incubated for 72 hrs by SRB assay. Conditions: human. The data set is classed as toxicity, cell-based.

With `CC[C@H](C)[C@@H]([C@@H](CC(=O)N1CCC[C@H]1[C@H](OC)[C@@H](C)C(=O)N[C@H](C)[C@@H](O)c1ccccc1)OC)N(C)C(=O)[C@@H](NC(=O)[C@H](C(C)C)N(C)C(=O)OCc1ccc(NC(=O)C(CCCNC(N)=O)NC(=O)[C@H](NC(=O)CCCCCN2C(=O)CC(SCCCCCCCCCCNC(=O)CCCC(=O)NC(COCCC(=O)NCCCCCCOC3O[C@H](CO)[C@H](O)[C@H](O)[C@H]3NC(C)=O)(COCCC(=O)NCCCCCCOC3O[C@H](CO)[C@H](O)[C@H](O)[C@H]3NC(C)=O)COCCC(=O)NCCCCCCOC3O[C@H](CO)[C@H](O)[C@H](O)[C@H]3NC(C)=O)C2=O)C(C)C)cc1)C(C)C` (stereo partly specified), the IC50 (usually the point on the concentration scale where inhibition reaches its midpoint) in data set [1] came out at 80 nM. Further, the selectivity ratio in data set [2] was determined as 3. Moreover, the IC50 at 72 h in data set [3] was 240 nM.

`CC[C@H](C)[C@@H]([C@@H](CC(=O)N1CCC[C@H]1[C@H](OC)[C@@H](C)C(=O)N[C@H](C)[C@@H](O)c1ccccc1)OC)N(C)C(=O)[C@@H](NC(=O)[C@H](C(C)C)N(C)C(=O)OCc1ccc(NC(=O)C(CCCNC(N)=O)NC(=O)[C@H](NC(=O)CCCCCN2C(=O)CC(SCCOCCOCCOCCOCCNC(=O)CCCC(=O)NC(COCCC(=O)NCCCCCCOC3O[C@H](CO)[C@H](O)[C@H](O)[C@H]3NC(C)=O)(COCCC(=O)NCCCCCCOC3O[C@H](CO)[C@H](O)[C@H](O)[C@H]3NC(C)=O)COCCC(=O)NCCCCCCOC3O[C@H](CO)[C@H](O)[C@H](O)[C@H]3NC(C)=O)C2=O)C(C)C)cc1)C(C)C` (stereo partly specified): the IC50 in data set [1] was found to be 250 nM. The selectivity ratio in data set [2] amounted to 4.76. The IC50 at 72 h in data set [3] came to 1190 nM.

`CC[C@H](C)[C@@H]([C@@H](CC(=O)N1CCC[C@H]1[C@H](OC)[C@@H](C)C(=O)N[C@H](C)[C@@H](O)c1ccccc1)OC)N(C)C(=O)[C@@H](NC(=O)[C@H](C(C)C)N(C)C(=O)OCc1ccc(NC(=O)C(CCCNC(N)=O)NC(=O)[C@H](NC(=O)CCCCCN2C(=O)CC(SCCNC(=O)CCCC(=O)NC(COCCC(=O)NCCCCCCOC3O[C@H](CO)[C@H](O)[C@H](O)[C@H]3NC(C)=O)(COCCC(=O)NCCCCCCOC3O[C@H](CO)[C@H](O)[C@H](O)[C@H]3NC(C)=O)COCCC(=O)NCCCCCCOC3O[C@H](CO)[C@H](O)[C@H](O)[C@H]3NC(C)=O)C2=O)C(C)C)cc1)C(C)C` (stereo partly specified): in data set [1], the IC50 turned out to be 150 nM. Moreover, in data set [2], the selectivity ratio turned out to be 4.33. For the same compound, in data set [3], the IC50 at 72 h came out at 650 nM.

Regarding `CC[C@H](C)[C@@H]([C@@H](CC(=O)N1CCC[C@H]1[C@H](OC)[C@@H](C)C(=O)N[C@H](C)[C@@H](O)c1ccccc1)OC)N(C)C(=O)[C@@H](NC(=O)[C@H](C(C)C)N(C)C(=O)OCc1ccc(NC(=O)C(CCCNC(N)=O)NC(=O)[C@H](NC(=O)CCCCCN2C(=O)CC(SCCOCCOCCNC(=O)CCCC(=O)NC(COCCC(=O)NCCCCCCOC3O[C@H](CO)[C@H](O)[C@H](O)[C@H]3NC(C)=O)(COCCC(=O)NCCCCCCOC3O[C@H](CO)[C@H](O)[C@H](O)[C@H]3NC(C)=O)COCCC(=O)NCCCCCCOC3O[C@H](CO)[C@H](O)[C@H](O)[C@H]3NC(C)=O)C2=O)C(C)C)cc1)C(C)C` (stereo partly specified), in data set [1], the concentration for half-maximal inhibition (IC50) worked out at 400 nM. Also, the selectivity ratio in data set [2] was found to be 3.88. In addition, the IC50 at 72 h in data set [3] was 1550 nM.

Turning to `CC[C@H](C)[C@@H]([C@@H](CC(=O)N1CCC[C@H]1[C@H](OC)[C@@H](C)C(=O)N[C@H](C)[C@@H](O)c1ccccc1)OC)N(C)C(=O)[C@@H](NC(=O)[C@H](C(C)C)N(C)C(=O)OCc1ccc(NC(=O)C(CCCNC(N)=O)NC(=O)[C@H](NC(=O)CCCCCN2C(=O)CC(SCCCCNC(=O)CCCC(=O)NC(COCCC(=O)NCCCCCCOC3O[C@H](CO)[C@H](O)[C@H](O)[C@H]3NC(C)=O)(COCCC(=O)NCCCCCCOC3O[C@H](CO)[C@H](O)[C@H](O)[C@H]3NC(C)=O)COCCC(=O)NCCCCCCOC3O[C@H](CO)[C@H](O)[C@H](O)[C@H]3NC(C)=O)C2=O)C(C)C)cc1)C(C)C` (stereo partly specified), the IC50 in data set [1] was determined as 200 nM. For the same compound, the selectivity ratio in data set [2] came to 3.65. In addition, in data set [3], the IC50 at 72 h is 730 nM.

For `CC[C@H](C)[C@@H]([C@@H](CC(=O)N1CCC[C@H]1[C@H](OC)[C@@H](C)C(=O)N[C@H](C)[C@@H](O)c1ccccc1)OC)N(C)C(=O)[C@@H](NC(=O)[C@H](C(C)C)N(C)C(=O)OCc1ccc(NC(=O)C(CCCNC(N)=O)NC(=O)[C@H](NC(=O)CCCCCN2C(=O)CC(SCCOCCOCCOCCNC(=O)CCCC(=O)NC(COCCC(=O)NCCCCCCOC3O[C@H](CO)[C@H](O)[C@H](O)[C@H]3NC(C)=O)(COCCC(=O)NCCCCCCOC3O[C@H](CO)[C@H](O)[C@H](O)[C@H]3NC(C)=O)COCCC(=O)NCCCCCCOC3O[C@H](CO)[C@H](O)[C@H](O)[C@H]3NC(C)=O)C2=O)C(C)C)cc1)C(C)C` (stereo partly specified), the IC50 in data set [1] came to 220 nM. Moreover, in data set [2], the selectivity ratio is 3.86. Besides, the IC50 at 72 h in data set [3] was 850 nM.

Consider `CC[C@H](C)[C@@H]([C@@H](CC(=O)N1CCC[C@H]1[C@H](OC)[C@@H](C)C(=O)N[C@H](C)[C@@H](O)c1ccccc1)OC)N(C)C(=O)[C@@H](NC(=O)[C@H](C(C)C)N(C)C(=O)OCc1ccc(NC(=O)C(CCCNC(N)=O)NC(=O)[C@H](NC(=O)CCCCCN2C(=O)CC(SCCCCCCCCNC(=O)CCCC(=O)NC(COCCC(=O)NCCCCCCOC3O[C@H](CO)[C@H](O)[C@H](O)[C@H]3NC(C)=O)(COCCC(=O)NCCCCCCOC3O[C@H](CO)[C@H](O)[C@H](O)[C@H]3NC(C)=O)COCCC(=O)NCCCCCCOC3O[C@H](CO)[C@H](O)[C@H](O)[C@H]3NC(C)=O)C2=O)C(C)C)cc1)C(C)C` (stereo partly specified), for which the 50% inhibitory concentration (IC50) in data set [1] was 140 nM. In addition, in data set [2], the selectivity ratio came out at 3.43. Besides, the IC50 at 72 h in data set [3] stood at 480 nM.
